{
  "source": "patent US4637997A",
  "about": "“Hexapeptide, process for obtaining II and the pharmaceutical compositions containing II” (Institut National de la Sante et de la Recherche Medicale, priority 1984, dated 1987)",
  "tested_on": "Klebsiella pneumoniae",
  "assay": "experimental infection with Klebsiella pneumoniae in the mouse",
  "assay_type": "in vivo",
  "conditions": "i.v.",
  "note": "Peptide text beside a SMILES is read from it.",
  "data": [
    {"smiles": "CC[C@H](C)[C@H](NC(=O)[C@@H]1CCCN1C(=O)[C@H](CCC(=O)O)NC(=O)[C@@H](N)C(C)C)C(=O)N1CCC[C@H]1C(=O)N[C@@H](Cc1ccc(O)cc1)C(=O)O", "note": "[hexapeptide of formula (I), Val-Glu-Pro-Ile-Pro-Tyr] (H-VEPIPY-OH)", "values": [
      {"measurement": "dose from which remarkable activity against experimental infection is exhibited", "result": "≥ 0.05", "unit": "mg/kg"}
    ]}
  ]
}
